Test results reported in PubChem BioAssay (NCI).
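Growth conditions: 96-well plates. Treatment: test compound, 48 hours, 5 concentrations. Analysis: linear interpolation between bracketing concentrations; unreached endpoints set to highest concentration. Abbreviation: GI50, concentration required for 50% inhibition of growth. TGI: total growth inhibition.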

Tests used:
Assay in all cases: NCI tumour cell line growth inhibition, 48 h
[1] = tested on: IGROV1 ovarian
[2] = tested on: UACC-62 melanoma
[3] = tested on: HT29 colon
[4] = tested on: RPMI-8226 leukemia
[5] = tested on: MOLT-4 leukemia
[6] = tested on: RXF 393 renal
[7] = tested on: COLO 205 colon
[8] = tested on: SK-OV-3 ovarian
[9] = tested on: SR leukemia
[10] = tested on: T-47D breast

| Compound | GI50 [1] [µM] | GI50 [2] [µM] | TGI [2] [µM] | GI50 [3] [µM] | GI50 [4] [µM] | TGI [4] [µM] | GI50 [5] [µM] | TGI [5] [µM] | GI50 [6] [µM] | TGI [6] [µM] | GI50 [7] [µM] | TGI [7] [µM] | GI50 [8] [µM] | TGI [8] [µM] | GI50 [9] [µM] | TGI [9] [µM] | GI50 [10] [µM] | TGI [10] [µM] | TGI [1] [µM] | TGI [3] [µM] |
| --- | --- | --- | --- | --- | --- | --- | --- | --- | --- | --- | --- | --- | --- | --- | --- | --- | --- | --- | --- | --- |
| COC(=O)c1cc(-c2ccccc2)[nH]c1N/N=C/c1c(Cl)cccc1Cl | 0.412 | 0.278 | 9 | 0.35 | 0.243 | 0.753 | 0.437 | > 100 | 0.616 | 52 | 0.301 | > 40.1 | 0.39 | 3.26 | 0.429 | > 100 | 0.418 | 7.36 |  |  |
| Cc1ccc(/C=C/c2c(C(=O)/C=C/c3ccccc3)c(C)nc3ccccc23)cc1 | 1.41 | 1.58 | 3.16 | 1.63 | 1.54 | 5.13 | 0.708 | 4.29 | 1.53 | 2.88 | 1.6 | 3.67 |  |  | 1.18 | 5.67 | 1.28 | 4.32 | 4.48 | 9.5 |
| Oc1c(C(Nc2ccccc2Br)c2ccccc2)ccc2cccnc12 (stereo not given) | 3.47 | 1.39 | 7.33 | 3.85 | 6.28 | > 100 | 1.68 | 7.56 | 1.97 | 20.9 | 2.75 | 36.6 | 3.24 | 78.5 | 0.715 | > 100 | 3.77 | 73.1 | 22.9 | 84.3 |
| C=C(C)[C@@H]1CCC=C2CC[C@]3(C)[C@H](CC[C@@H]4[C@@]5(C)CCCNC(C)(C)[C@@H]5CC[C@]43C)[C@H]21 | 1.91 | 1.92 | 3.84 |  | 2.14 | 5.15 | 1.87 | 4.09 | 1.63 | 3.13 | 1.9 | 3.65 | 12.1 | 27.3 | 1.25 | 3.65 | 1.77 | 4.83 | 3.54 |  |
| COc1ccc2c(c1)[n+](=O)c(C(=O)c1cccs1)c(C(F)(F)F)n2[O-] |  | 5.76 | 19.5 | 8.65 | 3.41 | > 50 | 24.9 | > 50 | > 50 | > 50 | 7.49 | > 50 | 6.41 | > 50 | 0.775 | > 50 | 5.26 | 29.8 |  | > 50 |
| CCCCC(SC(=S)N1CCCC1)C(=O)Nc1nc(CC(=O)OCC)cs1 (stereo not given) | 7.98 | 76.4 | > 100 | 21.8 | 10.6 | 90.9 | 1.91 | > 100 | 41.7 | > 100 |  |  | 97.4 | > 100 | 4.83 | > 100 | 30.5 | > 100 | > 100 | > 100 |
| O=[N+]([O-])c1cc[n+]([O-])c2ccccc12 | 0.259 | 0.231 | 0.698 | 0.246 | 0.0439 | 0.358 | 1.9 | 6.35 | 0.211 | 0.619 | 0.153 | 0.488 | 1.78 | 5.55 | 0.0245 | > 100 | 0.321 | 4.25 | 1.03 | 1.09 |
| [2H]C([2H])([2H])NC(=O)c1nnc(NC(=O)C2CC2)cc1Nc1cccc(-c2ncn(C)n2)c1OC | 6.96 | 91.6 | > 100 | 44.6 | 14.2 | > 100 | 0.934 | > 100 | 6.04 | > 100 | 97.1 | > 100 | 5.02 | 48.9 | 16.9 | > 100 | 32.4 | > 100 | > 100 | > 100 |
| Cc1ccc(/C=C(\C#N)c2cc3ccccc3n2C)cc1 | 0.544 | 0.278 | > 100 | 0.356 | 0.38 | > 100 | 0.467 | > 100 | 0.172 | 0.565 | 0.41 | > 43.5 | > 100 | > 100 | 0.264 | > 100 | 0.587 | > 100 | > 100 | > 100 |
| Cc1ccc(S(=O)(=O)Oc2ccc3c4c(c(=O)oc3c2)CCCCCC4)cc1 | > 100 | > 100 | > 100 | 0.531 | 2.33 | > 100 | 9.57 | > 100 | > 100 | > 100 | 2.92 | > 100 | > 100 | > 100 | 5.66 | > 100 | 5.05 | > 100 | > 100 | > 100 |
| C#C[C@]1(O)CC[C@H]2[C@@H]3CC=C4c5sc(Nc6cc(F)ccc6F)nc5CC[C@]4(C)[C@H]3CC[C@@]21C | 1.68 | 1.74 | 3.75 | 2.24 | 0.196 | 0.934 | 0.416 | 10.2 | 0.213 | 0.728 | 2.05 | 4.81 | 2.78 | 10.2 | 0.568 | > 100 | 2.49 | 7.69 | 3.73 | 8.5 |
| COC(C)(C)[C@@H](O)[C@H](O)C[C@H](C)C1=C2CC[C@@H]3[C@@]4(C)CC[C@@H](OC(C)=O)C(C)(C)[C@@H]4C[C@@H](OC4OC(COC(C)=O)C(O)C(O)C4O)[C@@]3(C)[C@]2(C)CC1 (stereo not given in full) | 13.1 | 8.79 | 21.7 | 5.08 | 4.15 | 22.1 | 5.07 | 23.9 | 6.96 | 19.5 | 10.6 | 22.8 |  | 28.7 | 3.06 | 14.3 | 12.6 | 25.6 | 26.2 | 16.9 |
| O=[N+]([O-])c1cccc(/C=N/NC2=CS(=O)(=O)C=C2)c1 |  |  | > 100 |  |  | > 100 |  | > 100 |  | > 100 |  | > 100 |  | > 100 |  | > 100 |  | > 100 | > 100 | > 100 |
| Fc1ccc(-c2ncn(C3CCNCC3)c2-c2ccnc(Oc3ccc4c(c3)OCO4)n2)cc1 | 13.9 | > 15.7 | > 25 | 9.62 | > 25 | > 25 | > 25 | > 25 | 7.88 | > 25 | 9.25 | > 25 | 14.9 | > 25 | 13.6 | > 25 | 12.7 | > 25 | > 25 | > 25 |
| Nc1ccn(C2CC(F)C(CO)O2)c(=O)n1 (stereo not given) | > 100 | > 100 | > 100 | > 100 | > 100 | > 100 | > 100 | > 100 | > 100 | > 100 | > 100 | > 100 | > 100 | > 100 | > 100 | > 100 | > 100 | > 100 | > 100 | > 100 |
| COc1c(C(C)=O)c(OCCCCOc2c(C(C)=O)c(OC)c3ccoc3c2OC)c(OC)c2occc12 | 7.58 | 2.13 | > 100 | 4.06 | 0.394 | 5.57 | 1.23 | 3.1 |  |  | 4.35 | > 100 | > 100 | > 100 | 0.258 | 7.72 | 2.02 | > 26.4 | > 100 | > 100 |
| O=S(=O)(NC1CCCCC1)c1ccc2c(c1)OCCOCCOCCOCCO2 |  |  | > 100 |  |  | > 100 |  | > 100 |  |  |  | > 100 |  | > 100 |  | > 100 |  | > 100 | > 100 | > 100 |
| CCCCCCCCCCCC1=NC(C)(C)CN1C(C)(C)CO |  | 1.86 | 3.54 | 1.92 | 2.49 | 5.83 | 2.79 | 8.66 | 2.26 | 4.48 | 1.59 | 3 | 3.8 | 12.4 | 3.07 | 12.5 | 2.05 | 5.31 |  | 4.1 |
| Cc1cn2c(/C=C3/C(=O)Nc4c3ccc3ccccc43)c(C(F)(F)F)nc2s1 |  | 0.627 | > 100 | 0.396 |  |  | 2.7 | > 100 | 2.24 | 8.35 | 0.398 | 1.9 | 1.25 | 69.3 | 0.238 | 26.4 | 2.88 | > 100 |  | 14.2 |
